According to patent US10889595B2, “[1,3]thiazin-2-amine compound, application, and pharmaceutical composition” (TETRANOV PHARMACEUTICAL CO., LTD., priority 2016, dated 2021):

These compounds were tested against BACE1 (Homo sapiens (Human), UniProt P56817) (assay: Activity assay: inhibitory activity against the enzyme BACE1). Conditions: 10 doses, 3-fold serial dilution starting from 10 μmol/L, singlet.
Format: biochemical
Procedure: The activity assay for the compound of each example was carried out in this experimental example, and the detailed test method was as follows:
1. The test compound was formulated as […] solution in dimethylsulfoxide;
2. Starting from 10 μmol/L, by 3-fold serial dilution, the inhibitory activity of each compound against the enzyme was tested in singlet state at 10 doses;
3. IC50 values of test compounds were finally obtained.

Sequence of BACE1 (P56817 46-501): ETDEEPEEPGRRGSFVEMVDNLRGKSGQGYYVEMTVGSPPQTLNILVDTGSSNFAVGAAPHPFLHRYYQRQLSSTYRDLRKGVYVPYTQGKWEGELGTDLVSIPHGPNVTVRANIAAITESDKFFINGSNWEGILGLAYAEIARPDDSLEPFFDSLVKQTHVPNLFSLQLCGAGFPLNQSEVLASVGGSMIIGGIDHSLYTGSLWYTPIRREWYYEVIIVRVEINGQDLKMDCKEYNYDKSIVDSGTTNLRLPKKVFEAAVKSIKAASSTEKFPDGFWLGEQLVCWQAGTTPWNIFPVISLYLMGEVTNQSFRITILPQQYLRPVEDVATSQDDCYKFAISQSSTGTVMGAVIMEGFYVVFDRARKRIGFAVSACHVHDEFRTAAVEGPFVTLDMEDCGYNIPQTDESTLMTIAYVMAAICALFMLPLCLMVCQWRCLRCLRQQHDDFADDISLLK

In order of falling IC50:
1. C[C@H]1C[C@@]2(F)CSC(N)=N[C@@]2(c2cc(N)ccc2F)CO1 [Example 7, (4aS,6S,8aS)-8a-(5-amino-2-fluorophenyl)-4a-fluoro-6-methyl-4,4a,5,6,8,8a-hexahydropyrano[3,4-d][1,3]thiazin-2-amine]  5870 nM
2. Cc1cnc(C(=O)Nc2cccc([C@]34CO[C@@H](C)C[C@@]3(F)CSC(N)=N4)c2)cn1 [Example 15, N-(3-((4aS,6S,8aS)-2-amino-4a-fluoro-6-methyl-4,4a,5,6,8,8a-hexahydropyrano[3,4-d][1,3]thiazin-8a-yl)phenyl)-5-methylpyrazin-2-carboxamide]  225 nM
3. C[C@H]1C[C@@]2(F)CSC(N)=N[C@@]2(c2cc(NC(=O)c3ccc(Cl)cn3)ccc2F)CO1 [Example 11, N-(3-((4aS,6S,8aS)-2-amino-4a-fluoro-6-methyl-4,4a,5,6,8,8a-hexahydropyrano[3,4-d][1,3]thiazin-8a-yl)-4-fluorophenyl)-5-chloropicolinamide]  172 nM
4. COc1cnc(C(=O)Nc2ccc(F)c([C@]34CO[C@@H](C)C[C@@]3(F)CSC(N)=N4)c2)cn1 [Example 12]  150 nM
5. COc1cnc(C(=O)Nc2cccc([C@]34CO[C@@H](C)C[C@@]3(F)CSC(N)=N4)c2)cn1 [Example 14, N-(3-((4aS,6S,8aS)-2-amino-4a-fluoro-6-methyl-4,4a,5,6,8,8a-hexahydropyrano[3,4-d][1,3]thiazin-8a-yl)phenyl)-5-methoxypyrazin-2-carboxamide]  130 nM
